Experiments:
[1] = target: T1, human PPARδ (hPPARδ) (Homo sapiens, UniProt Q03181); assay: Test for transcriptional activity of PPARδ (GAL4 chimeric transcription-factor reporter assay in CHO cells); type: cell-based; details: GAL4-hPPARδ LBD chimeric reporter in CHO cells
T1 construct: δ:aa 139-C-end; expressed in transfected cells
T1 sequence (Q03181 139-441 limits assumed): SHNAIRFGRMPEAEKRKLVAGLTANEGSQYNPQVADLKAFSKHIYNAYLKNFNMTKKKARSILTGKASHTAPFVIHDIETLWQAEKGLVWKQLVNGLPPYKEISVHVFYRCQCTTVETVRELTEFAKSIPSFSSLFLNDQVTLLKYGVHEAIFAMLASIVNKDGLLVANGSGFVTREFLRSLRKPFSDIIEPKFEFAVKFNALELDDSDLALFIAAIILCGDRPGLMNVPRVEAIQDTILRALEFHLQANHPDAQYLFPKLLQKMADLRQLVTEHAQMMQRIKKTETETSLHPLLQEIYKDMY
From the text: A chimeric transcription-factor assay, which is commonly used to detect nuclear receptor activity, was employed to measure PPAR transcriptional activity. Specifically, two plasmids, one that expresses the fusion protein of DNA binding domain of yeast transcription factor GAL4 and a ligand binding domain of a receptor, and a reporter plasmid were transiently transfected to CHO cells. The activity of the promoter containing a recognition sequence of GAL4 coded on the reporter plasmid was used as a parameter to estimate the activity of the receptor.
Then, each obtained cDNA-fragment was subcloned into pBIND vector (Promega) to construct a plasmid expressing the fusion protein with DNA binding domain of yeast transcription factor. GAL4. pG51uc vector (Promega) was used as a reporter plasmid.
Cell culturing and transfection: CHO cells were cultured in 10% FBS-αMEM. With a 96-well plate (Costar), CHO cells, that were dispersed with trypsin treatment, 20000 cells per well and the two plasmids obtained by the above procedure, 25 ng per well, were transfected with FuGene Reagent (Roche) by following the instruction of the manufacture.
Measurement of the transcriptional activity: CHO cells 100 μl per well, which were transfected as above, were dispensed into the wells in which a test compound dissolved in DMSO 0.5 μl was spotted in advance. After the cells and a test compound were cultured together for 24 hours in a CO2 incubator, the luciferase activity was measured by adding luciferase substrates, PicaGene LT2.0 (Toyo ink) 100 μl per well. LUMINOUS CT9000D (DIA-IATRON) is used to measure the activity.

[2] = target: T2, CYP2C9 (Homo sapiens, UniProt P11712); assay: Test for inhibition of CYP2C9 enzyme (tolbutamide 4-position hydration, human liver microsomes); type: in vitro ADME; details: pH 7.4, probe tolbutamide (14C labeled), 5 µM, human liver microsomes 0.25 mg/ml, 5 μM tolbutamide, 37° C., solvent control = 100%, read-out: Residual activity (%) CYP2C9
T2 construct: the protein concentration, 0.25 mg/ml (human liver microsomes, 15 pol, Lot. 210296, XenoTech); tissue XenoTech Lot; 210296; host or cells: human liver microsomes (pooled)
T2 sequence (P11712 whole entry): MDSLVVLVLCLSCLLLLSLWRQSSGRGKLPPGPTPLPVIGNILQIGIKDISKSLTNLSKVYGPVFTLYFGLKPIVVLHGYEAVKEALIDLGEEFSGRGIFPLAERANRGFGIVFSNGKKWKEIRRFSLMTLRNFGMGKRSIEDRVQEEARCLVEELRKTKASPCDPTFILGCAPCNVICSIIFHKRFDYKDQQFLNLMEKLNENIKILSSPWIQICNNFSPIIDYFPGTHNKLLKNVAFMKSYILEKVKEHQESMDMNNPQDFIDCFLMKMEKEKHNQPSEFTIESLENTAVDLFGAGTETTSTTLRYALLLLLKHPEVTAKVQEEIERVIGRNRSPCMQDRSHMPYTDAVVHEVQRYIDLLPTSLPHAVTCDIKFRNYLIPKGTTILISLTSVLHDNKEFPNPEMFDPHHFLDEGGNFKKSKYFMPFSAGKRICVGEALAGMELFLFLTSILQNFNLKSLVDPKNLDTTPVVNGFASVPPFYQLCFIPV
Description: The reaction condition is as below. A substrate, 5 μM Tolbutamide (14C labeled compound); the reaction time, 30 minutes; the reaction temperature, 37° C.; the protein concentration, 0.25 mg/ml (human liver microsomes, 15 pol, Lot. 210296, XenoTech).
To the HEPES Buffer (pH 7.4), is added the protein (human liver microsomes), a drug solution and a substrate with the composition as the above. NADPH, which is a coenzyme of the reaction, is added thereto to start the reaction. After reacting for the fixed hours, 2N hydrochloric acid solution is added thereto and the reaction is stopped by removing protein. The remaining substrate drug and the generating metabolite are extracted with chloroform. The solvent is removed and the residue is redissolved in methanol. This solution was spotted on TLC, developed with chloroform:methanol: acetic acid=90:10:1, contacted on the imaging plate for about 14-20 hours and analyzed by BAS2000. As to the generation activity of the metabolite, Tolbutamide 4-potition hydration body, the activity in case that the solvent dissolving a drug is added to the reaction assay is used as a control (100%). The residual activity (%) in case that the test drug solution is added to the reaction is calculated.

[3] = 24 hours, concentration showing 1/2 of maximum luciferase activity (Table 166)

| melting point | EC50 [1, 3] | activity at 30 min [2] | EC50 ([1]; 24 hours (Table 168)) | SMILES |
| --- | --- | --- | --- | --- |
| 105 to 107 °C | – | – | – | COCc1c(COc2ccc(OCC(=O)O)c(C)c2)noc1-c1ccc(C(F)(F)F)cc1 [α-5-1, {4-[4-Methoxymethyl-5-(4-trifluoromethylphenyl)-isoxazole-3-ylmethoxy]-2-methyl-phenoxy}-acetic acid] |
| 133 to 134 °C | – | – | – | COC(=O)COc1ccc(C(=O)CCc2noc(-c3ccc(C(F)(F)F)cc3)c2C)cc1C [α-6-3-1, (2-Methyl-4-{3-[4-methyl-5-(4-trifluoromethylphenyl)-isoxazole-3-yl]-propionyl}-phenoxy)-acetic acid methyl ester] |
| 191 to 194 °C | – | – | – | Cc1cc(C(=O)CCc2noc(-c3ccc(C(F)(F)F)cc3)c2C)ccc1OCC(=O)O [α-6-4-1, (2-Methyl-4-{3-[4-methyl-5-(4-trifluoromethylphenyl)-isoxazole-3-yl]-propionyl}-phenoxy)-acetic acid] |
| 203 to 204.5 °C | 9.5 nM | – | – | Cc1cc(SCc2noc(-c3ccc(C(F)(F)F)cc3)c2C)ccc1Cc1noc(=O)[nH]1 [α-7-3-1, 3-[2-methyl-4-[4-methyl-5-(4-trifluoromethylphenyl)isoxazole-3-ylmethylsulfanil]benzil]-4H-[1,2,4]oxadiazole-5-on] |
| 129 to 131 °C | 9.9 nM | – | – | Cc1cc(SCc2noc(-c3ccc(C(F)(F)F)cc3)c2C)ccc1OCC(=O)O [β-1-3] |
| 157 to 159 °C | 11 nM | – | – | Cc1cc(SCc2noc(-c3ccc(Cl)cc3)c2C)ccc1OCC(=O)O [β-1-8] |
| 105 to 107 °C | 1.5 nM | – | – | COCc1c(CSc2ccc(OCC(=O)O)c(C)c2)noc1-c1ccc(C(F)(F)F)cc1 [β-1-15] |
| 261 to 262.5 °C | – | – | – | Cc1c(COc2ccc(C=CC(=O)O)cc2F)noc1-c1ccc(C(F)(F)F)cc1 [β-2-15, 3-{3-Fluoro-4-[4-methyl-5-(4-trifluoromethylphenyl)isoxazole-3-ylmethoxy]phenyl}acrylic acid] |
| 179.5 to 181.5 °C | – | 47% | 35 nM | Cc1cc(SCc2cc(-c3ccc(C(F)(F)F)cc3)on2)ccc1/C=C/C(=O)O [β-2-38] |
| 159 to 160 °C | – | – | – | Cc1c(COc2ccc3c(ccn3CC(=O)O)c2)noc1-c1ccc(C(F)(F)F)cc1 [β-3-1, {5-[4-Methyl-5-(4 trifluoromethylphenyl)isoxazole-3-ylmethoxy]indole-1-yl}acetic acid] |
| 139 to 141 °C | 16 nM | – | – | Cc1c(CSc2ccc3c(ccn3CC(=O)O)c2)noc1-c1ccc(C(F)(F)F)cc1 [β-4-1, {5-[4-Methyl-5-(4-trifluoromethylphenyl)isoxazole-3-ylmethylsulfanil]indole-1-yl}acetic acid] |
| 139 to 141 °C | 14 nM | – | – | Cc1c(CSc2ccc(-c3sccc3C(=O)O)cc2)noc1-c1ccc(C(F)(F)F)cc1 [β-5-1, 2-{4-[4-Methyl-5-(4-trifluoromethylphenyl)isoxazole-3-ylmethylsulfanil]phenyl}thiophene-3-carboxylic acid] |

— patent US20070054902A1, “Isoxazole derivatives as peroxisome proliferator-activated receptors agonists” (SHIONOGI & CO., LTD., priority 2003, published 2007)
